Drawing on PubChem BioAssay AID850 (SRMLSC, 2007), this text covers IC50 and inhibition for 34 compounds.

For experiment [1], the system named is Saccharomyces cerevisiae growth inhibition, permissive control. The experiment is described as follows: concentration-response yeast growth inhibition under permissive conditions, counter-assay for yeast lifespan-shortening chemical project (AID 850).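 Further: growth read as optical density after one day of incubation.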
Test in experiment [2]: as above
The conditions noted are these: Saccharomyces cerevisiae growth inhibition, permissive control, measured here: maximum growth inhibition, stronger effect = higher value.

The structures appear in SMILES notation. Activity calls are given as the source filed them. How the calls were made is not given here.

`Cc1cc(N/N=C/c2ccc(Cl)cc2Cl)nc(NCc2ccccc2)n1`: the IC50 (usually the midpoint of a concentration-inhibition curve) in experiment [1] was 31.7 µM. In experiment [2] (at 50 µM), the inhibition (usually the relative decrease from the control value, in per cent) amounted to 99.2%.

Consider `CC(C)c1ccc(NC(=S)NCCc2c[nH]c3ccccc23)cc1`, for which the IC50 in experiment [1] was > 100 µM (inactive). In addition, in experiment [2] (at 3.125 µM), the inhibition was 20.3%.

`CC/C(C)=N/Nc1cccc([N+](=O)[O-])c1`: in experiment [1], the IC50 is 4.11 µM. Moreover, the inhibition in experiment [2] (at 50 µM) was 98.4%.

With `CCCCCCCCCCCCCCCC[n+]1ccc(/C=N/O)cc1`, in experiment [1], the IC50 was 1.07 µM. In addition, the inhibition in experiment [2] (at 50 µM) was determined as 100%.

As to `N/C(Cc1ccccc1)=N\OC(=O)c1cccc2ccccc12`, in experiment [1], the IC50 was 8.26 µM. In experiment [2] (at 50 µM), the inhibition turned out to be 100%.

In the case of `c1ccc(-c2nc3c(ccc4ccccc43)[nH]2)nc1`, in experiment [1], the IC50 was 36.8 µM. The inhibition in experiment [2] (at 50 µM) came out at 80.8%.

Regarding `S=C(NCC1CCCCC1)Nc1ccc(Oc2ccccc2)cc1`, the IC50 in experiment [1] is > 100 µM (inactive). Moreover, the inhibition in experiment [2] (at 0.781 µM) was found to be 7.72%.

For `O=C(Oc1ccc(Cl)c2cccnc12)c1ccco1`, the IC50 in experiment [1] was 12.4 µM. In experiment [2] (at 50 µM), the inhibition came to 100%.

As for `C=CCNC(=S)N/N=C(\C)c1ccccn1`, the IC50 in experiment [1] was 13.8 µM. Also, the inhibition in experiment [2] (at 50 µM) turned out to be 99.4%.

Take `O=C(O)CSc1cccc[n+]1[O-]`: in experiment [1], the IC50 was 28.7 µM. Besides, in experiment [2] (at 50 µM), the inhibition stood at 94.2%.

With `Oc1c(Br)cc(Cl)cc1C=Nc1ccccc1Br`, the IC50 in experiment [1] was 7.27 µM. Moreover, the inhibition in experiment [2] (at 50 µM) was 100%.

For `O/N=C/c1cc(Cl)ccc1OCc1cccc2ccccc12`, in experiment [1], the IC50 is > 100 µM (inactive). Moreover, the inhibition in experiment [2] (at 0.391 µM) stood at 11.2%.

Consider `Cc1c(C=O)c2ccccn2c1C(=O)c1ccncc1`, for which the IC50 in experiment [1] is > 100 µM (inactive). Also, the inhibition in experiment [2] (at 50 µM) came to 10.7%.

In the case of `COc1ccccc1-n1c(=O)oc2ccc(Cl)cc2c1=O`, in experiment [1], the IC50 is > 100 µM (inactive). For the same compound, in experiment [2] (at 6.25 µM), the inhibition was -0.76%.

For the compound `CC1CCC2(CC1)NC(=S)N(c1ccccc1)N2` (stereo not drawn), the IC50 in experiment [1] was 14.1 µM. Besides, in experiment [2] (at 50 µM), the inhibition turned out to be 97.5%.

For the compound `O=C(Nc1ccc(Cl)cc1)ON=C1CCCC1`, the IC50 in experiment [1] is 7.46 µM. Further, in experiment [2] (at 25 µM), the inhibition came to 99.4%.

Consider `Nc1ccc(O)c2c1C(=O)c1ccccc1C2=O`, for which the IC50 in experiment [1] is > 100 µM (inactive). Moreover, the inhibition in experiment [2] (at 25 µM) stood at 16.4%.

On to `CCN1/C(=C/c2ccc3cc(C)ccc3[n+]2CC)Sc2ccccc21`, for which the IC50 in experiment [1] is 3.44 µM. Moreover, the inhibition in experiment [2] (at 50 µM) turned out to be 99.4%.

As for `CC1=C(C)CC2C(=O)N(c3cccc4ccccc34)C(=O)C2C1` (stereo not drawn), the IC50 in experiment [1] was > 100 µM (inactive). Moreover, the inhibition in experiment [2] (at 50 µM) turned out to be 8.57%.

As to `Cc1ccc(N=Cc2cccc(O)c2O)c(C)c1`, the IC50 in experiment [1] is 16 µM. Moreover, the inhibition in experiment [2] (at 50 µM) amounted to 99.4%.

As for `CC(=O)Oc1ccc(N2C(=O)C3C(C2=O)C2(C)C=CC3(C)O2)cc1` (stereo not drawn), the IC50 in experiment [1] was > 100 µM (inactive). Also, the inhibition in experiment [2] (at 0.195 µM) came to 3.93%.

`Cc1ccc(-n2c(C)cc(C(=O)COC(=O)c3ccc[nH]c3=O)c2C)cc1`: the 50% inhibitory concentration (IC50) in experiment [1] was 27.7 µM. In experiment [2] (at 50 µM), the inhibition was determined as 67%.

Take `Cc1ccc(-n2c(Cl)c(Cl)nc(Cl)c2=O)cc1`: in experiment [1], the IC50 was 14 µM. In experiment [2] (at 50 µM), the inhibition worked out at 102%.

With `Cn1cccc1Cc1nnc(SCC(=O)Nc2nccs2)n1CCc1ccccc1`, in experiment [1], the IC50 was > 100 µM (inactive). Moreover, in experiment [2] (at 6.25 µM), the inhibition was 29%.

As for `CSC1=NSC2=NC(=O)/C(=C/c3coc4ccccc4c3=O)C(=N)N12`, the IC50 in experiment [1] was > 100 µM (inactive). The inhibition in experiment [2] (at 50 µM) was determined as 28.3%.

On to `S=C(NCc1ccc(Cl)cc1)NC12CC3CC(CC(C3)C1)C2`, for which the IC50 in experiment [1] is > 100 µM (inactive). The inhibition in experiment [2] (at 0.195 µM) was found to be 14.1%.

With `O=[N+]([O-])c1cccc(/C=N/n2cnnc2)c1O`, the IC50 in experiment [1] is 21 µM. In experiment [2] (at 50 µM), the inhibition came out at 76.8%.

Regarding `Cc1ccc(Nc2cc(C)nn2-c2nc(C)cc(=O)[nH]2)cc1`, the IC50 in experiment [1] is 0.708 µM. In addition, the inhibition in experiment [2] (at 6.25 µM) came out at 96.6%.

On to `Clc1ccc(CCNc2nc3ccccc3s2)cc1`, for which, in experiment [1], the IC50 is > 100 µM (inactive). For the same compound, the inhibition in experiment [2] (at 0.195 µM) was -6.19%.

For the compound `S=C(NCc1ccc(Cl)cc1Cl)NC1CCCCC1`, the IC50 in experiment [1] is > 100 µM (inactive). The inhibition in experiment [2] (at 50 µM) turned out to be 22.8%.

On to `O=C(Oc1c(Cl)cc(Cl)c2cccnc12)c1cccs1`, for which the IC50 in experiment [1] was 12.7 µM. Moreover, in experiment [2], the inhibition turned out to be 100%.

For the compound `O=S(=O)(Cc1ccccc1)NCc1cccnc1`, the IC50 in experiment [1] is > 100 µM (inactive). The inhibition in experiment [2] (at 12.5 µM) was 28.2%.

In the case of `O=C(CC(=O)c1ccccc1O)c1ccc(F)cc1`, the IC50 in experiment [1] was 30.1 µM. Besides, in experiment [2] (at 25 µM), the inhibition was 37%.

For `C=C(C)COc1ccc(-c2[nH]ncc2-c2ccc(Br)cc2)c(O)c1`, in experiment [1], the IC50 is > 100 µM (inactive). Further, the inhibition in experiment [2] (at 25 µM) stood at 15.9%.
